# According to PMC12195967, “Cobalt(II) Complexes of 4′–Nitro–Fenamic Acid: Characterization and Biological Evaluation” (Molecules, 2025):
# Where two headings read alike, the source gives them in different places.
# Experiments:
# DPPH radical scavenging = details: compounds 0.1 mM, DPPH 0.1 mM in ethanol
# Method: Antioxidant compounds able to neutralize DPPH radicals are increasingly recognized due to their capability of combating cancer, slowing down the aging process and regulating inflammation. As a result, they could potentially offer protection against rheumatoid arthritis and inflammation. […] In this experiment, NDGA and BHT were used as reference compounds and measurements took place at 30 min and 60 min. […] Such low scavenging activity of DPPH radicals is rather common for metal–NSAID complexes.
# (§1) S1 Antioxidant activity assay
# (§2) The antioxidant activity of the compound was evaluated via the ability to scavenge in vitro free radicals such as DPPH and ABTS and to reduce H2O2. All the experiments were carried out at least in triplicate and the standard deviation of absorbance was less than 10% […]
# S1.1 Determination of the reducing activity of the radical DPPH
# To an ethanolic solution of DPPH (0.1 mM) an equal volume solution of the compounds (0.1 mM) in ethanol was added. Absolute ethanol was also used as control solution. The absorbance at 517 nm was recorded at room temperature after 30 and 60 min in order to examine the possible existence of a potential time−dependence of the DPPH radical scavenging activity.[1] The DPPH−scavenging activity of the compounds was expressed as the percentage reduction of the absorbance values of the initial DPPH solution (DPPH%). NDGA and BHT were used as reference compounds. […]
# CT DNA = details: cited from earlier work
# [1] = Reduction of hydrogen peroxide; details: compounds 0.1 mM; phosphate buffer pH 7.4; 10 min
# Method: Harmful hydroxyl radicals are released when hydrogen peroxide interacts with transition metal ions, leading to oxidative stress. Consequently, both oxidative stress and the production of reactive oxygen species could be reduced by ^•OH scavengers and H2O2 reducing agents.
# as §1
# The antioxidant activity of the compound was evaluated via the ability to scavenge in vitro free radicals such as DPPH and ABTS and to reduce H2O2. […]
# S1.3 Reduction of hydrogen peroxide
# The ability of the compounds to reduce hydrogen peroxide (H2O2) was estimated according to the method described in the literature. The reaction mixture contained 20 μL of each of the tested compounds (0.1 mM) and 5 μL H2O2 solution (40 mM) in phosphate […]
# buffer (50 mM, pH 7.4). The absorbance was measured at 230 nm after 10 min. The antioxidant activity (reduction of H2O2) of the compounds was expressed as the percentage decrease of the initial H2O2 solution (H2O2%). […]
# [2] = ABTS radical cation scavenging; details: compounds 0.1 mM; absorbance 734 nm after 1 min
# Method: The ABTS-scavenging was measured through the discoloration of a dark green solution containing the cationic radical ABTS^•+, which was induced from the oxidation derived from hydrogen-donating antioxidants, either complexes or standards, and is often considered a marker of total oxidation capacity. […] Such an increase in activity upon coordination is expected for metal–NSAID complexes.
# as §1, §2
# S1.2 Assay of radical cation ABTS−scavenging activity
# The ABTS assay was performed to determine the activity of the compounds to scavenge the radical cation ABTS. Initially, a water solution of ABTS was prepared (2 mM).
# ABTS radical cation (ABTS+·) was produced by the reaction of ABTS stock solution with potassium persulfate (0.17 mM) and the mixture was stored in the dark at room temperature for 12−16 h before its use. The ABTS was oxidized incompletely because the stoichiometric reaction ratio of ABTS and potassium persulfate is 1:0.5. The absorbance became maximal and stable only after more than 6 h of reaction although the oxidation of the ABTS started immediately. The radical was stable in this form for more than 2 days when allowed to stand in the dark at room temperature. Afterwards, the ABTS+· solution was diluted in ethanol to an absorbance of 0.70 at 734 nm and 10 μL of diluted compounds or standards (0.1 mM) in DMSO were added. The absorbance was recorded out exactly 1 min after initial mixing.
# The ABTS–radical scavenging activity of the compounds was expressed as the percentage inhibition of the absorbance of the initial ABTS solution (ABTS%). […]
# [3] = commercially available fenamates
compound,measurement,setting,value
"Cc1cc(C(C)(C)C)c(O)c(C(C)(C)C)c1 [BHT, butylated hydroxytoluene, reference compound]","%DPPH-scavenging ability (DPPH%), 30 min",DPPH radical scavenging,70.83 ± 0.03%
same,"%DPPH-scavenging ability (DPPH%), 60 min",DPPH radical scavenging,83.39 ± 0.39%
"CC[n+]1c(-c2ccccc2)c2cc(N)ccc2c2ccc(N)cc21 [EB, ethidium bromide]",DNA-binding constant Kb,CT DNA; classic DNA intercalator,123000 M⁻¹
"O=C1O[C@H]([C@@H](O)CO)C(O)=C1O [L-ascorbic acid, reference compound]",H2O2-reducing ability (H2O2%),[1],58.90 ± 0.52%
"CC(Cc1ccc(O)c(O)c1)C(C)Cc1ccc(O)c(O)c1 (stereo not shown) [NDGA, nordihydroguaiaretic acid, reference compound]","%DPPH-scavenging ability (DPPH%), 30 min",DPPH radical scavenging,94.33 ± 0.11%
same,"%DPPH-scavenging ability (DPPH%), 60 min",DPPH radical scavenging,90.47 ± 0.42%
"Cc1c(C)c2c(c(C)c1O)CCC(C)(C(=O)O)O2 (stereo not shown) [Trolox, 6–hydroxy–2,5,7,8–tetramethylchroman–2–carboxylic acid, reference compound]",%ABTS radical scavenging activity (ABTS%),[2],96.50 ± 0.05%
O=C(O)c1ccccc1Nc1cccc(C(F)(F)F)c1 [flufenamic acid],DNA-binding constant Kb,CT DNA; [3],270000 M⁻¹
Cc1cccc(Nc2ccccc2C(=O)O)c1C [mefenamic acid],DNA-binding constant Kb,CT DNA; [3],105000 M⁻¹
Cc1c(Cl)cccc1Nc1ccccc1C(=O)O [tolfenamic acid],DNA-binding constant Kb,CT DNA; [3],50000 M⁻¹
